Results taken from patent US8101408B2, “Insecticidal extract from legume plants and method of preparing the same” (Her Majesty the Queen in right of Canada, as represented by …, priority 2005, dated 2012).
“And” between values parts separate entries of the source, which are not always exact repeats. Equal values may be shown once. “Also recorded” adds a separate entry of the source. Read-outs that look alike come from different tables or passages of the source.

Key:
[1] = molecular target: calcium-dependent potassium channels (Homo sapiens, UniProt Q12791); conditions: mammalian in vitro experiments (McManus et al.); cited from earlier work
calcium-dependent potassium channels, sequence (Q12791 whole entry): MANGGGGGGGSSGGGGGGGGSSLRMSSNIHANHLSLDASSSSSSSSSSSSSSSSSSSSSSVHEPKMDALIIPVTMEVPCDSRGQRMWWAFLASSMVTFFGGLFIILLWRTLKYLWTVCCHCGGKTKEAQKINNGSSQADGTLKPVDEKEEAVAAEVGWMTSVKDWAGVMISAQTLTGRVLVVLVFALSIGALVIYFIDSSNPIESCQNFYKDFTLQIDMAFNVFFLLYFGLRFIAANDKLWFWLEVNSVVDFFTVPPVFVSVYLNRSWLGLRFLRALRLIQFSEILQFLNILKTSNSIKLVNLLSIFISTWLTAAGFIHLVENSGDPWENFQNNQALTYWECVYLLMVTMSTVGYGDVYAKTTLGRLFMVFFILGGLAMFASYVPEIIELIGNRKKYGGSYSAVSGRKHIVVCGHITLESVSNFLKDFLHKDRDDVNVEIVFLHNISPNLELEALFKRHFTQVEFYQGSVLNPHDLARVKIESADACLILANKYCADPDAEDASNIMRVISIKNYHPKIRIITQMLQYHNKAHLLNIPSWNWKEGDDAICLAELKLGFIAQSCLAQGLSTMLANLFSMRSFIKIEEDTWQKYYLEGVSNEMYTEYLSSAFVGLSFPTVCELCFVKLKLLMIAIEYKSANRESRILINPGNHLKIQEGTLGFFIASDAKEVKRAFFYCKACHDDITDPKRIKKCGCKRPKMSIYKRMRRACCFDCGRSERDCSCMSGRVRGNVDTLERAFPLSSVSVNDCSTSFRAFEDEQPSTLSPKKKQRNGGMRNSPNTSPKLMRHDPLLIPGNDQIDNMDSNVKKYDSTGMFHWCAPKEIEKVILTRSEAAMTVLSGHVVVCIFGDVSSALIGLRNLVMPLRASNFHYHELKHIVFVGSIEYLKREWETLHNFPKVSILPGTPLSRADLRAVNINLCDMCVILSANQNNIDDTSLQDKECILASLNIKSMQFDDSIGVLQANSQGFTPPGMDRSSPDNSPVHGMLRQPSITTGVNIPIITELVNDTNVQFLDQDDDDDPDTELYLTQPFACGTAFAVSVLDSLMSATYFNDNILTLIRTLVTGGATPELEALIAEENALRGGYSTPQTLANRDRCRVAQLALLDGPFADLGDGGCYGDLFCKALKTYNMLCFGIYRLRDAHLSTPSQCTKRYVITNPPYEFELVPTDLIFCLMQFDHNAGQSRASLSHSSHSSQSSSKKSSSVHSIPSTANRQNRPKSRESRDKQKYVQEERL
calcium-dependent potassium channels, sequence (Q16558 whole entry partner): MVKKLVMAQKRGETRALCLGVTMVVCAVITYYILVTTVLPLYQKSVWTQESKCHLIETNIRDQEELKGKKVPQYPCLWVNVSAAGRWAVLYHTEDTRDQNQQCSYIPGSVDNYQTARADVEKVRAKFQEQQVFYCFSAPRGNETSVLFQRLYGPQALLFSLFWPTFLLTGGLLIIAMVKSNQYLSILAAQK

[2] = system: Sitophilus oryzae; format: in vivo; conditions: for Mean survival time (days ± SE) / LD90 (%): saponin:peptide ratio 1:0; for LD90 (%): held three days on treated wafers, at 7 days; for mortality / toxicity to the rice weevil (in words): used alone
Protocol: (§1) Reduction in feeding activity elicited by the experimental samples was compared to food consumption of untreated controls, obtained by weighing the disks before and after exposure to insects and expressed as percent feeding relative to the control. Bioassay can also include insecticidal measurements (lethality with rice weevil).
(§2) Flour disks (ca. 0.1 g/disk) were weighed before and after exposure to the insects. […] Antifeedant activity was determined by expressing consumption of treated disks as a percentage of control disks (70% ethanol). Positive controls using the same C8 extract were run with each bioassay.
Probit analysis (Polo-PC, LeOra Software, Berkeley, Calif., U.S.A.) was used to estimate the concentrations required to kill 50 and 90% of the population after seven days. For the experiments that used a single dose, the mean survival time was estimated using Kaplan-Meier survival analysis (SigmaStat 3.0, SPSS Inc, Chicago, Ill., U.S.A.).

[3] = system: Sitophilus oryzae; experiment: Flour disk antifeedant bioassay with rice weevils (food consumption as % of control; EC50/EC90 for feeding reduction); format: in vivo; conditions: for food consumption, peptide to saponin treatment ratio 1:1 / food consumption, peptide to saponin treatment ratio 9:1 / food consumption, peptide to saponin treatment ratio 1:9: peptide source AIEX YM3; for synergy with pea peptides (in words): single dose tests, pea peptide to saponin treatment ratios of 9:1, 1:1 and 1:9; for food consumption, initial treatment: Table 20, saponin alone; for antifeedant activity (in words): rice weevil flour disk bioassay; for EC90 (%) to reduce feeding by 90%: three days on treated wafers
Protocol: The bioactivity of separated fractions was determined primarily by a flour disk antifeedant bioassay with the rice weevil (Sitophilus oryzae), an insect pest of stored products.
A glass column (1.2 cm internal diameter×20.5 cm length) equipped with a solvent reservoir and stopcock was filled with silica gel (Mallinckrodt SilicAR cc-7) using a slurry of the silica gel in chloroform (Merck OmniSolv containing 1% ethanol). The top of the bed was protected with sea sand. C8 powder (130 mg) was applied to the column, after mixing with silica gel, as a 1.25 cm band. Using a slight positive air pressure to maintain reasonable flow rates, the column was eluted with chloroform (75 ml) then with 75 ml volumes of various mixtures of chloroform and methanol followed by pure methanol (Table 1). The column was eluted with more methanol (75 ml) and finally with two additional volumes of methanol (250 ml each). […] A final evaporation was performed with a Savant apparatus (43° C.). The tubes were re-weighed, capped and transferred to the bioassay laboratory. Each sample was dissolved in 70% ethanol (0.5 ml) and 0.2 ml of that solution was added to the wheat flour (200 mg) for preparation of the disks. […] Control disks were prepared with 0.2 ml of 70% ethanol.
A test insecticidal compound is incorporated into flour disks. […] A typical dose in many of the above examples is 1.6 milligram/200 milligram flour. Wheat flour is typically used.
as §1, §2
The estimate and confidence limits are the values of X where the line Y=Yo crosses the regression line and its upper and lower confidence curves, respectively. The formulae can be expressed in terms of outputs from the regression analysis. Let a and b be the estimates of the intercept and slope, MSE the mean square error, n the number of observations, t the (2-sided) critical value of t with n−2 degrees of freedom, V(b) the variance (standard error squared) of b and D=b^2−t^2V(b)). Then the estimate of X is Xo=(Yo−a)/b and the confidence limits for X are X0+t^2V(b)(Y0− Y)/bD±H where H^2=t^2└D·MSE/n+V(b)(Y0− Y)^2┘/D^2. The interval is not symmetric about Xo. […]

[4] = system: Sitophilus oryzae; conditions: sample from a Japanese scientist; Bodnaryk et al., U.S. Pat. No. 5,955,082; cited from earlier work
[5] = C8 material as peptide source, total dose 1.6 mg/200 mg of flour (D-I: 0.8 mg/100 mg)
[6] = total dose 1.6 mg/200 mg of flour (D-I: 0.8 mg/100 mg)
[7] = total dose 1.6 mg/200 mg of flour
[8] = saponin:peptide ratio 1:0 (saponin or soap alone), concentration 0.8%
[9] = C8 material as peptide source, total dose 1.6 mg/200 mg of flour
[10] = separate experiment, different batch of C8 material as peptide source, total dose 1.6 mg/200 mg of flour

Row | Compound | food consumption, peptide to saponin treatment ratio 9:1 (values in brackets) [3, 5] | food consumption, peptide to saponin treatment ratio 1:1 [3, 6] | food consumption, peptide to saponin treatment ratio 9:1 [3, 6] | synergy with pea peptides (in words) [3] | food consumption, initial treatment ([3]; 1.6 mg/200 mg of flour) | food consumption, peptide to saponin treatment ratio 1:9 [3, 7] | antifeedant activity (in words) [3] | Feeding as a percent of control (%) [3, 8] | Mean survival time (days ± SE) ([2]; 0.8%, Kaplan-Meier) | other results
1 | C[C@@H]1O[C@@H](O[C@H]2[C@H](O[C@H]3[C@H](O[C@H]4CC[C@@]5(C)[C@@H](CC[C@]6(C)[C@@H]5CC=C5[C@@H]7CC(C)(C)CC(=O)[C@]7(C)CC[C@]56C)[C@@]4(C)CO)O[C@H](C(=O)O)[C@@H](O)[C@@H]3O)O[C@H](CO)[C@H](O)[C@@H]2O)[C@H](O)[C@H](O)[C@H]1O [Dehydrosoyasaponin I, dehydrosoyasaponin I] | (17) % of control | 34 % of control | 32 % of control | clearly synergistic | – | – | – | – | – | action on calcium-dependent potassium channels (in words) [1]: high-affinity activator; potency as a potassium channel opener relative to S-I [1]: 60 fold; Mean survival time (days ± SE) ([2]; 0.6% used in this test): 13.8 ± 0.2 a days; food consumption in the rice weevil bioassay ([3]; RPC isolate, […]100 mg of flour (equivalent to 1.28 mg/200 mg)): 65%; Feeding as a percent of control (%) ([3]; saponin:peptide ratio 1:0, 0.6% used in this test): 65%
2 | CC1(C)[C@@H](O[C@H]2O[C@H](C(=O)O)[C@@H](O)[C@H](O)[C@H]2O[C@@H]2O[C@H](C(=O)O)[C@@H](O)[C@H](O)[C@H]2O)CC[C@]2(C)[C@H]3C(=O)C=C4[C@@H]5C[C@@](C)(C(=O)O)CC[C@]5(C)CC[C@@]4(C)[C@]3(C)CC[C@@H]12 [Glycyrrhizic acid, glycyrrhizic acid] | – | 45 % of control | 33 % of control | clearly synergistic | 96 % of control | 39 % of control | inactive; also recorded: no significant reduction in feeding | 96% | – | –
3 | C[C@@H]1O[C@@H](O[C@H]2[C@H](O[C@H]3CC[C@@]4(C)[C@@H](CC[C@]5(C)[C@@H]4CC=C4[C@@H]6CC(C)(C)CC[C@]6(C(=O)O[C@@H]6O[C@H](CO[C@@H]7O[C@H](CO)[C@@H](O[C@@H]8O[C@@H](C)[C@H](O)[C@@H](O)[C@H]8O)[C@H](O)[C@H]7O)[C@@H](O)[C@H](O)[C@H]6O)CC[C@]45C)[C@]3(C)CO)OC[C@H](O)[C@@H]2O)[C@H](O)[C@H](O)[C@H]1O [Hederacoside C, hederacoside C] | – | 47 % of control | 44 % of control | clearly synergistic | 117 % of control | 58 % of control | inactive | 117% | 13.9 a days | antifeedant activity (in words) ([3]; listed as hederacoside C): no significant reduction in feeding
4 | CCCCCCCCCCCCCCCC(=O)OC[C@@H](O)COP(=O)([O-])OCC[N+](C)(C)C [L-16:0] | – | – | – | – | – | – | – | – | – | food consumption in the rice weevil bioassay ([3]; 1.6 mg/200 mg flour, relative to control): 102%; food consumption ([3]; lysolecithin-saponin (soyasaponin I) mixtures, similar experiments, total dose 0.016-1.6 mg/200 mg of flour): 84-102%; food consumption, expressed as % of untreated control ([3]; mixtures of 90% lysolecithin and 10% peptides (AIEX YM3), total dose 0.016-1.6 mg/200 mg of flour): 71-115%
5 | C[C@@H]1O[C@@H](O[C@H]2[C@H](O[C@H]3[C@H](O[C@H]4CC[C@@]5(C)[C@@H](CC[C@]6(C)[C@@H]5CC=C5[C@@H]7CC(C)(C)C[C@@H](O)[C@]7(C)CC[C@]56C)[C@@]4(C)CO)O[C@H](C(=O)O)[C@@H](O)[C@@H]3O)O[C@H](CO)[C@H](O)[C@@H]2O)[C@H](O)[C@H](O)[C@H]1O [Soyasaponin I, soyasaponin I] | (29) % of control | 23 % of control | 24 % of control | – | 98 % of control | 16 % of control | inactive; also recorded: no significant reduction in feeding | 92% and 98% | 13.8 a days | activity in the rice weevil bioassays (in words) [4]: nearly inactive; LD90 (%) [2]: >>12 ^ %; mortality / toxicity to the rice weevil (in words) [2]: no mortality; mortality / toxicity to the rice weevil (in words) ([2]; listed as soyasaponin I): no increase in mortality; food consumption, peptide to saponin treatment ratio 1:1 (values in brackets) [3, 9]: (27) % of control; food consumption, peptide to saponin treatment ratio 1:9 (values in brackets) [3, 9]: (26) % of control; food consumption in the rice weevil bioassay ([3]; RPC isolate, 0.43 mg dose, disks from one-half the usual amount of flour (100 mg)): 100%; food consumption (% of control) ([3]; Table 3, dose 1.6 mg/200 mg flour, listed as soyasaponin I (free acid)): 83 % of control and 114 % of control; feeding, % of the control ([3]; highest concentration tested, 12.8%): 75 % of the control; EC90 (%) to reduce feeding by 90% ([3]; saponin:peptide ratio 1:0): >>12 ^ %; food consumption, peptide to saponin treatment ratio 1:1 (values in brackets) [3, 10]: (33)^7 % of control; food consumption, peptide to saponin treatment ratio 1:9 (values in brackets) [3, 10]: (42)^7 % of control; food consumption, peptide to saponin treatment ratio 9:1 (values in brackets) [3, 10]: (44)^7 % of control
6 | CCCCCCCCCCCC(=O)OCCOCCOCCOCCOCCOCCOCCOCCOCCOCCOCCOCCOCCOCCOCCOCCOCCOCCOCCOCCOCC(OCCOCCOCCOCCOCCOCCOCCOCCOCCOCCOCCOCCOCCOCCOCCOCCOCCOCCOCCOCCO)C1OCC(OCCOCCOCCOCCOCCOCCOCCOCCOCCOCCOCCOCCOCCOCCOCCOCCOCCOCCOCCOCCO)C1OCCOCCOCCOCCOCCOCCOCCOCCOCCOCCOCCOCCOCCOCCOCCOCCOCCOCCOCCOCCO (stereo not drawn) [Tween 20, polyoxyethylene(20)sorbitan monolaurate] | – | – | – | – | – | – | – | 106% | 13.7 a days | mortality / toxicity to the rice weevil (in words) [2]: Neither Tween or dish soap were toxic
7 | Cc1occc(=O)c1O [maltol, 3-hydroxy-2-methyl-4-pyrone] | – | – | – | – | – | – | inactive | – | – | f.c. (food consumption) ([3]; Table 4, 1.6 mg/200 mg of flour): 110 % of control
8 | C[C@@H]1O[C@@H](O[C@H]2[C@H](O[C@H]3CC[C@@]4(C)[C@@H](CC[C@]5(C)[C@@H]4CC=C4[C@@H]6CC(C)(C)CC[C@]6(C(=O)O)CC[C@]45C)[C@]3(C)CO)OC[C@H](O)[C@@H]2O)[C@H](O)[C@H](O)[C@H]1O [α-Hederin, α-hederin] | – | 26 % of control | 24 % of control | – | 36 % of control | 26 % of control | – | 36% | – | –
9 | β-escin | (14) % of control | 17 % of control | 17 % of control | – | – | 18 % of control | – | 18% and 30% | 6.3 ± 0.2 a days | LD90 (%) [2]: 1.74%; food consumption, peptide to saponin treatment ratio 1:1 (values in brackets) [3, 9]: (15) % of control; food consumption, peptide to saponin treatment ratio 1:9 (values in brackets) [3, 9]: (16) % of control; EC90 (%) to reduce feeding by 90% ([3]; saponin:peptide ratio 1:0): 1.5%
